Where a SMILES comes first, the peptide text is derived from it.
What was measured:
Type in all cases: in vivo, BALB/C mice
hemopoietic cells = experiment: Proliferation of hemopoietic cells and tolerance of multiple cycles of Ara-C chemotherapy
Protocol: (§1) A number of assays were performed to show the effect of combining the hemopoiesis inhibitory factor and hemopoiesis growth factor on the proliferation of hemopoietic cells during chemotherapy.
(§2) Three groups of BALB/C mice were used in this study. Mice of the three groups were treated as follows (i.e., with Ara-C, the abbreviation of cytosine arabinoside, as the cytotoxic agent, AcSDKP as the hemopoiesis inhibitory factor, and GM-CSF as the hemopoiesis growth factor):
(§3) In each group, the animals were subjected to a sequence of three cycles of chemotherapy, i.e., Cycle I (Days 0-20), Cycle II (Days 21-37), and Cycle III (Days 38-56). Note that animals in each group were sacrificed on specific days for collection of blood samples, eliminating the artifact that may have been induced by intensive repetitive bleedings of the same animals.
(§4) Minipump implantations and excisions: The 200 μl capacity ALZET™ osmotic minipump Model 2001 (Alza Corporation, Palo Alto, Calif.) primed to deliver 1.0 μL/hour for 7 days was used for continuously administering the 100 ng/hour of AcSDKP in each cycle. More specifically, during each cycle, AcSDKP primed pumps were implanted s.c. prior to the first administration of Ara-C in the A.M. of day zero and excised in the A.M. of day 7. The first administration of Ara-C was in the A.M. of day zero and the last administration in the A.M. of day 6 (q.d., or once per day).
Treatment cycle: For the animals of Group 3, each cycle consists of a period in which Ara-C and AcSDKP were administered, a period in which the administered Ara-C and AcSDKP were purged, a period in which GM-CSF was administered, and, finally, a further recovery period. More specifically, after 7 consecutive days of Ara-C treatment during which time AcSDKP was administered by continuous s.c. infusion (see the preceding paragraph), a 2-day period followed so as to allow for purging of both AcSDKP and Ara-C. […]

polymorphonuclear cells = experiment: Polymorphonuclear cell counts in mice during three cycles of Ara-C chemotherapy
Protocol: as §1, §2, §3, §4
(§5) Treatment cycle: For the animals of Group 3, each cycle consists of a period in which Ara-C and AcSDKP were administered, a period in which the administered Ara-C and AcSDKP were purged, a period in which GM-CSF was administered, and, finally, a further recovery period. More specifically, after 7 consecutive days of Ara-C treatment during which time AcSDKP was administered by continuous s.c. infusion (see the preceding paragraph), a 2-day period followed so as to allow for purging of both AcSDKP and Ara-C. GM-CSF was then administered for 4 days (b.i.d., or twice per day), and the animals were permitted 4-8 more days at the end of the GM-CSF administration to recover before the initiation of the subsequent cycle (as in Cycles I and II) or before the collection of the last blood samples (as in Cycle III).
(§6) Blood sample collection: Blood samples (maximum attainable volume) for clinical pathology evaluations were collected from mice at euthanasia. The mice were food-fasted overnight prior to blood collection and samples were collected by puncture of the retro-orbital sinus after anesthetization by CO2 inhalation.
(§7) Analysis of blood samples: Hematology data were collected electronically and processed by the HUMMINGBIRD™ computer system (Laboratories Consulting, Inc., Madison, Wis.). Blood samples were processed and evaluated for the parameters specified (polymorphonuclear cell, platelet, and white blood cell counts in 10^3 cells/[…] as shown in Tables 2 and 3) using a Sysmex TOAE-2500 hematology analyzer (TOA Medical Electronics, Kobe, Japan).
(§8) The data in Table 2 (as well as in Table 3) are log transformed to minimize the effect of outliers and the geometric means of the data are used for the analyses. The difference in the means between two test groups are compared for each of three different stages, i.e., chemotherapy (days 0-4, 21-25 and 38-42 in Cycles I, II and III, respectively), nadir (days 5-10, 26-31 and 43-48 in Cycles I, II and III, respectively), or recovery (days 11-20, 32-37 and 49-56 in Cycles I, II and III, respectively). Significant differences are marked by a large dot, which stands for P<0.003, a statistically significant p-value for data compared between two groups combined over the three cycles.

platelets = experiment: Platelet counts in mice during three cycles of Ara-C chemotherapy
Protocol: as §1, §2, §3, §4, §5, §6, §7
as §8, with “See the right-hand column "percent change," i.e., (cell count from Group 2/cell count from Group 1)×100%, in Table 2. The data” for “The data”

white blood cells = experiment: White blood cell counts in mice during three cycles of Ara-C chemotherapy
Protocol: as §1, §2, §3, §4, §5, §6, §7
as §8, with “See the right-hand column "percent change," i.e., (cell count from Group 2/cell count from Group 1)×100%, in Table 2. The data” for “The data”

[1] = Group 2 (Ara-C+GM-CSF) vs Group 1 (Ara-C), Cycle I, Chemotherapy (days 0-4)
[2] = Group 2 (Ara-C+GM-CSF) vs Group 1 (Ara-C), Cycle I, Nadir (days 5-10)
[3] = Group 2 (Ara-C+GM-CSF) vs Group 1 (Ara-C), Cycle I, Recovery (days 11-20)
[4] = Group 2 (Ara-C+GM-CSF) vs Group 1 (Ara-C), Cycle II, Chemotherapy (days 21-25)
[5] = Group 2 (Ara-C+GM-CSF) vs Group 1 (Ara-C), Cycle II, Nadir (days 26-31)
[6] = Group 2 (Ara-C+GM-CSF) vs Group 1 (Ara-C), Cycle II, Recovery (days 32-37)
[7] = Group 2 (Ara-C+GM-CSF) vs Group 1 (Ara-C), Cycle III, Chemotherapy (days 38-42)
[8] = Group 2 (Ara-C+GM-CSF) vs Group 1 (Ara-C), Cycle III, Nadir (days 43-48)
[9] = Group 2 (Ara-C+GM-CSF) vs Group 1 (Ara-C), Cycle III, Recovery (days 49-56)
[10] = Group 3 (Ara-C+AcSDKP+GM-CSF) vs Group 2 (Ara-C+GM-CSF), Cycle I, Chemotherapy (days 0-4)
[11] = Group 3 (Ara-C+AcSDKP+GM-CSF) vs Group 2 (Ara-C+GM-CSF), Cycle I, Nadir (days 5-10)
[12] = Group 3 (Ara-C+AcSDKP+GM-CSF) vs Group 2 (Ara-C+GM-CSF), Cycle I, Recovery (days 11-20), marked significant
[13] = Group 3 (Ara-C+AcSDKP+GM-CSF) vs Group 2 (Ara-C+GM-CSF), Cycle II, Chemotherapy (days 21-25)
[14] = Group 3 (Ara-C+AcSDKP+GM-CSF) vs Group 2 (Ara-C+GM-CSF), Cycle II, Nadir (days 26-31)
[15] = Group 3 (Ara-C+AcSDKP+GM-CSF) vs Group 2 (Ara-C+GM-CSF), Cycle II, Recovery (days 32-37), marked significant
[16] = Group 3 (Ara-C+AcSDKP+GM-CSF) vs Group 2 (Ara-C+GM-CSF), Cycle III, Chemotherapy (days 38-42)
[17] = Group 3 (Ara-C+AcSDKP+GM-CSF) vs Group 2 (Ara-C+GM-CSF), Cycle III, Nadir (days 43-48)
[18] = Group 3 (Ara-C+AcSDKP+GM-CSF) vs Group 2 (Ara-C+GM-CSF), Cycle III, Recovery (days 49-56), marked significant

“GM-CSF: granulocyte/macrophage-colony stimulating factor, the hemopoiesis growth factor, procured from Immunix Research and Development Corp.” was tested, and the “Ability of the animals to tolerate multiple cycles of chemotherapy” value (hemopoietic cells; Group 2 (Ara-C+GM-CSF) vs Group 1 (Ara-C)) was “did not enhance”, the “Percent change, polymorphonuclear cell count” value (polymorphonuclear cells; [1]) was -0.2001% and the “Percent change, polymorphonuclear cell count” value (polymorphonuclear cells; [2]) was 23.1962%. The “Percent change, polymorphonuclear cell count” value (polymorphonuclear cells; [3]) was 21.7299%, the “Percent change, polymorphonuclear cell count” value (polymorphonuclear cells; [4]) was 19.8969% and the “Percent change, polymorphonuclear cell count” value (polymorphonuclear cells; [5]) was 9.4827%. The “Percent change, polymorphonuclear cell count” value (polymorphonuclear cells; [6]) was -10.9401%, the “Percent change, polymorphonuclear cell count” value (polymorphonuclear cells; [7]) was 29.7855% and the “Percent change, polymorphonuclear cell count” value (polymorphonuclear cells; [8]) was 1.6526%. The “Percent change, polymorphonuclear cell count” value (polymorphonuclear cells; [9]) was -0.7213%, the “Percent change, platelet count” value (platelets; [1]) was 30.5966% and the “Percent change, platelet count” value (platelets; [2]) was 0.0332%. The “Percent change, platelet count” value (platelets; Group 2 (Ara-C+GM-CSF) vs Group 1 (Ara-C), Cycle I, Recovery (days 11-20), marked significant) was 10.6804%, the “Percent change, platelet count” value (platelets; [4]) was 0.5878% and the “Percent change, platelet count” value (platelets; [5]) was 0.0259%. For the same molecule, the “Percent change, platelet count” value (platelets; Group 2 (Ara-C+GM-CSF) vs Group 1 (Ara-C), Cycle II, Recovery (days 32-37), marked significant) was 20.4577%, the “Percent change, platelet count” value (platelets; [7]) was 15.5436% and the “Percent change, platelet count” value (platelets; [8]) was 14.0708%. The “Percent change, platelet count” value (platelets; Group 2 (Ara-C+GM-CSF) vs Group 1 (Ara-C), Cycle III, Recovery (days 49-56), marked significant) was 11.9135%, the “Platelet counts, change in words” value (platelets; Group 2 (Ara-C+GM-CSF) vs Group 1 (Ara-C), recovery periods, three cycles combined, p=0.0003) was “significantly increased” and the “Percent change, white blood cell count” value (white blood cells; [1]) was -9.1838%. For the same molecule, the “Percent change, white blood cell count” value (white blood cells; [2]) was 17.5916%, the “Percent change, white blood cell count” value (white blood cells; [3]) was 5.3418% and the “Percent change, white blood cell count” value (white blood cells; [4]) was 43.1551%. For the same molecule, the “Percent change, white blood cell count” value (white blood cells; [5]) was 40.2987%, the “Percent change, white blood cell count” value (white blood cells; [6]) was -7.2022% and the “Percent change, white blood cell count” value (white blood cells; [7]) was 7.717%. The “Percent change, white blood cell count” value (white blood cells; [8]) was -9.5103%, the “Percent change, white blood cell count” value (white blood cells; [9]) was -0.8913% and the “White blood cell counts, change in words” value (white blood cells; Group 2 (Ara-C+GM-CSF) vs Group 1 (Ara-C), recovery period of Cycles II and III) was “decreased”.
With CC(=O)N[C@@H](CO)C(=O)N[C@@H](CC(=O)O)C(=O)N[C@@H](CCCCN)C(=O)N1CCC[C@H]1C(=O)O [AcSDKP, N-Acetyl-Ser-Asp-Lys-Pro] (Ac-SDKP-OH) the “Blood cell levels, effect of AcSDKP present during chemotherapy” value (hemopoietic cells; Group 3 (Ara-C+AcSDKP+GM-CSF) vs Group 2 (Ara-C+GM-CSF)) was “contributed to subsequent enhancement of blood cell levels by GM-CSF”, the “Ability to tolerate multiple cycles of chemotherapy” value (hemopoietic cells; combined use of AcSDKP and GM-CSF with Ara-C (Group 3)) was “allows multiple cycles of chemotherapy” and the “Percent change, polymorphonuclear cell count” value (polymorphonuclear cells; [10]) was -66.466%. For the same molecule, the “Percent change, polymorphonuclear cell count” value (polymorphonuclear cells; [11]) was -27.344%, the “Percent change, polymorphonuclear cell count” value (polymorphonuclear cells; [12]) was 52.314% and the “Percent change, polymorphonuclear cell count” value (polymorphonuclear cells; [13]) was -44.682%. For the same molecule, the “Percent change, polymorphonuclear cell count” value (polymorphonuclear cells; [14]) was 130.128%, the “Percent change, polymorphonuclear cell count” value (polymorphonuclear cells; [15]) was 100.223% and the “Percent change, polymorphonuclear cell count” value (polymorphonuclear cells; [16]) was 37.246%. The “Percent change, polymorphonuclear cell count” value (polymorphonuclear cells; [17]) was 42.105%, the “Percent change, polymorphonuclear cell count” value (polymorphonuclear cells; [18]) was 95.829% and the “Polymorphonuclear cell counts, change in words” value (polymorphonuclear cells; Group 3 (Ara-C+AcSDKP+GM-CSF) vs Group 2 (Ara-C+GM-CSF), recovery periods, p=<0.0001) was “significantly increased”. For the same molecule, the “Percent change, platelet count” value (platelets; [10]) was -53.4439%, the “Percent change, platelet count” value (platelets; Group 3 (Ara-C+AcSDKP+GM-CSF) vs Group 2 (Ara-C+GM-CSF), Cycle I, Nadir (days 5-10), marked significant) was 20.9005% and the “Percent change, platelet count” value (platelets; Group 3 (Ara-C+AcSDKP+GM-CSF) vs Group 2 (Ara-C+GM-CSF), Cycle I, Recovery (days 11-20)) was 23.6811%. The “Percent change, platelet count” value (platelets; [13]) was 29.203%, the “Percent change, platelet count” value (platelets; Group 3 (Ara-C+AcSDKP+GM-CSF) vs Group 2 (Ara-C+GM-CSF), Cycle II, Nadir (days 26-31), marked significant) was 49.9274% and the “Percent change, platelet count” value (platelets; Group 3 (Ara-C+AcSDKP+GM-CSF) vs Group 2 (Ara-C+GM-CSF), Cycle II, Recovery (days 32-37)) was 13.851%. The “Percent change, platelet count” value (platelets; [16]) was 36.6101%, the “Percent change, platelet count” value (platelets; Group 3 (Ara-C+AcSDKP+GM-CSF) vs Group 2 (Ara-C+GM-CSF), Cycle III, Nadir (days 43-48), marked significant) was 32.1586% and the “Percent change, platelet count” value (platelets; Group 3 (Ara-C+AcSDKP+GM-CSF) vs Group 2 (Ara-C+GM-CSF), Cycle III, Recovery (days 49-56)) was -0.7018%. The “Platelet counts, change in words” value (platelets; Group 3 (Ara-C+AcSDKP+GM-CSF) vs Group 2 (Ara-C+GM-CSF), nadir periods, p=0.0006) was “significantly increased”, the “Percent change, white blood cell count” value (white blood cells; [10]) was -39.0687% and the “Percent change, white blood cell count” value (white blood cells; [11]) was -47.8669%. For the same molecule, the “Percent change, white blood cell count” value (white blood cells; [12]) was 29.1779%, the “Percent change, white blood cell count” value (white blood cells; [13]) was -57.7294% and the “Percent change, white blood cell count” value (white blood cells; [14]) was -10.6607%. For the same molecule, the “Percent change, white blood cell count” value (white blood cells; [15]) was 44.2989%, the “Percent change, white blood cell count” value (white blood cells; [16]) was 19.207% and the “Percent change, white blood cell count” value (white blood cells; [17]) was -9.4556%. For the same molecule, the “Percent change, white blood cell count” value (white blood cells; [18]) was 50.2142% and the “White blood cell counts, change in words” value (white blood cells; Group 3 (Ara-C+AcSDKP+GM-CSF) vs Group 2 (Ara-C+GM-CSF), recovery periods, p=0.0001) was “significantly increased”.

From patent publication US5595973A, “Protection of hemopoietic cells during chemotherapy or radiotherapy” (Biomeasure Incorporated, priority 1994, dated 1997)
